Experimental findings from US7855290B2, “Pyridine derivatives and pyrimidine derivatives (3)” (Eisai R&D Management Co., Ltd., priority 2005, dated 2010) are described below.

For assay [1], the system named is Human gastric cancer cells (MKN-45). Briefly: Inhibitory activity against the proliferation of human gastric cancer cells (MKN-45). The format is cell-based. The conditions noted are these: 72 h, MKN-45, 1% FBS RPMI1640, 3 days, Cell Counting Kit-8. The method in brief:
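MKN-45 cells seeded overnight in RPMI1640 with 1% FBS, then exposed to compound for 3 days at 37° C, 5% CO2. Viability read with CCK-8 after about 1.5 hrs, absorbance at 450 nm (reference 660 nm).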

A further assay concerns the target T1, HGFR (Homo sapiens, UniProt P08581).
T1 construct: endogenous in cells; host or cells: MKN-45 human gastric cancer cells
Briefly: Inhibitory activity against the HGFR autophosphorylation using ELISA (MKN-45 cells). The format is cell-based. The conditions noted are these: 1 hr with test substance. The method in brief: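 MKN-45 gastric cancer cells, plated overnight in 1% FBS RPMI1640, treated with compound 1 h at 37° C and lysed. Lysate captured on anti-phosphotyrosine (PY20) plates, probed with anti-HGFR then HRP anti-rabbit IgG; TMB absorbance at 450 nm. Activity expressed as % of untreated extract (100%) versus lysis buffer blank (0%).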
(An ELISA detects its analyte on a solid surface through an enzyme-linked reagent.)

Each structure is given as a SMILES string.

T1 sequence (P08581 25-1390): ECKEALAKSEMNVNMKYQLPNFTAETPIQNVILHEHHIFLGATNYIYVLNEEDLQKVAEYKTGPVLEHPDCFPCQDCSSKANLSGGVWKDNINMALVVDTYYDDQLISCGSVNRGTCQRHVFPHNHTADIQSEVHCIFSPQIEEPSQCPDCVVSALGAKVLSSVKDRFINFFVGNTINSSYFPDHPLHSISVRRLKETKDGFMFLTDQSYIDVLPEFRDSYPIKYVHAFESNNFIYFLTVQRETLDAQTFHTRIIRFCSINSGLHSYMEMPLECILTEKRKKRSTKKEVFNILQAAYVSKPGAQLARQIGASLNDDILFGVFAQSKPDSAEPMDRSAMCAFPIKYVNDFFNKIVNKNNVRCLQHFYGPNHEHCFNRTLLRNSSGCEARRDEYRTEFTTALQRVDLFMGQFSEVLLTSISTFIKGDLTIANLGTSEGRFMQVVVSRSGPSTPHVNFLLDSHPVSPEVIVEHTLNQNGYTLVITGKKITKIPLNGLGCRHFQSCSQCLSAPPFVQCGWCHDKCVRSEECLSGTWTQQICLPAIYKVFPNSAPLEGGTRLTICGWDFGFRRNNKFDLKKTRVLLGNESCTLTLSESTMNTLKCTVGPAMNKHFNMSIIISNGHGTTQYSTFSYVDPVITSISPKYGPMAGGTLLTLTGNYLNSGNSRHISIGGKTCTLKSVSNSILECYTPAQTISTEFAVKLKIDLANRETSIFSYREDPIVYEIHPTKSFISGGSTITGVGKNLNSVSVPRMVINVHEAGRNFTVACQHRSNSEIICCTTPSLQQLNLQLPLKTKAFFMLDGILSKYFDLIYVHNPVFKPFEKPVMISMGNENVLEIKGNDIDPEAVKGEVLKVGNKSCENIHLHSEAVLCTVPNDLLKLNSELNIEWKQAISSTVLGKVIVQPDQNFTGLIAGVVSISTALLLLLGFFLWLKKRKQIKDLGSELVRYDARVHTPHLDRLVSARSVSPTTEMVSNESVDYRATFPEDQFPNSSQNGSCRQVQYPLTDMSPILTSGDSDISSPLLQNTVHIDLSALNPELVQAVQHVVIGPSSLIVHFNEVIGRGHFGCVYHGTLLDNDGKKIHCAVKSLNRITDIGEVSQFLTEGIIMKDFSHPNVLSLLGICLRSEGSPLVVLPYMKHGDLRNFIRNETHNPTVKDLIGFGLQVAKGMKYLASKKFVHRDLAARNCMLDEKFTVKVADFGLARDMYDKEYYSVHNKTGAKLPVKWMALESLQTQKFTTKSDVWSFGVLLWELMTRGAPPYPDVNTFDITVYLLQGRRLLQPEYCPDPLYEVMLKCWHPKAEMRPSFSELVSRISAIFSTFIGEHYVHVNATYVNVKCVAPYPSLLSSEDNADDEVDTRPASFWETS

Turning to `CN(C)CC1CN(C(=O)Nc2cc(Oc3ccc(NC(=O)C4(C(=O)Nc5ccc(F)cc5)CC4)c(F)c3)ccn2)C1` [Example 77, N-[4-({2-[({3-[(Dimethylamino)methyl]azetidin-1-yl}carbonyl)amino]pyridin-4-yl}oxy)-2-fluorophenyl]-N′-(4-fluorophenyl)cyclopropane-1,1-dicarboxamide], the IC50 in assay [1] stood at 19 nM; against HGFR it was 13 nM.

On to `CN1CCC(N2CCN(C(=O)Nc3cc(Oc4ccc(NC(=O)C5(C(=O)Nc6ccc(F)cc6)CC5)cc4)ccn3)CC2)CC1` [Example 31, N-(4-Fluorophenyl)-N′-(4-{[2-({[4-(1-methylpiperidin-4-yl)piperazin-1-yl]carbonyl}amino)pyridin-4-yl]oxy}phenyl)cyclopropane-1,1-dicarboxamide], for which the IC50 worked out at 31 nM in assay [1] and 30 nM on HGFR.

In the case of `CN(C)CCN1CCN(C(=O)Nc2cc(Oc3ccc(NC(=O)C4(C(=O)Nc5ccc(F)cc5)CC4)cc3F)ccn2)CC1` [Example 7, N-[4-({2-[({4-[2-(Dimethylamino)ethyl]piperazin-1-yl}carbonyl)amino]pyridin-4-yl}oxy)-3-fluorophenyl]-N′-(4-fluorophenyl)cyclopropane-1,1-dicarboxamide], the IC50 in assay [1] came out at 18 nM; against HGFR it was 35 nM.

Take `CN(C)[C@H]1CCN(C(=O)Nc2cc(Oc3ccc(NC(=O)C4(C(=O)Nc5ccc(F)cc5)CC4)cc3)ccn2)C1` [Example 41, N-(4-{[2-({[(3S)-3-(Dimethylamino)pyrrolidin-1-yl]carbonyl}amino)pyridin-4-yl]oxy}phenyl)-N′-(4-fluorophenyl)cyclopropane-1,1-dicarboxamide]: the IC50 in assay [1] turned out to be 42 nM; on HGFR, 16 nM.

`CN1CCC(N(C)C(=O)Nc2cc(Oc3ccc(NC(=O)C4(C(=O)Nc5ccc(F)cc5)CC4)cc3F)ncn2)CC1` [Example 33, N-(3-Fluoro-4-{[6-({[methyl(1-methylpiperidin-4-yl)amino]carbonyl}amino)pyrimidin-4-yl]oxy}phenyl)-N′-(4-fluorophenyl)cyclopropane-1,1-dicarboxamide]: the IC50 came to 55 nM in assay [1] and 25 nM against HGFR.

For the molecule `O=C(Nc1cc(Oc2ccc(NC(=O)C3(C(=O)Nc4ccc(F)cc4)CC3)cc2)ccn1)N1CCOCC1` [Example 68, N-(4-Fluorophenyl)-N′-[4-({2-[(morpholin-4-ylcarbonyl)amino]pyridin-4-yl}oxy)phenyl]cyclopropane-1,1-dicarboxamide], the IC50 turned out to be 134 nM in assay [1] and 71 nM against HGFR.

Turning to `O=C(Nc1cc(Oc2ccc(NC(=O)C3(C(=O)Nc4ccc(F)cc4)CC3)cc2F)ncn1)N1CCOCC1` [Example 35, N-[3-Fluoro-4-({6-{(morpholin-4-ylcarbonyl)amino}pyrimidin-4-yl}oxy)phenyl]-N′-(4-fluorophenyl)cyclopropane-1,1-dicarboxamide], the IC50 is 230 nM in assay [1] and 120 nM on HGFR.

Turning to `CN(C)[C@H]1CCN(C(=O)Nc2cc(Oc3ccc(NC(=O)C4(C(=O)Nc5ccc(F)cc5)CC4)c(F)c3)ccn2)C1` [Example 46, N-(4-{[2-({[(3S)-3-(Dimethylamino)pyrrolidin-1-yl]carbonyl}amino)pyridin-4-yl]oxy}-2-fluorophenyl)-N′-(4-fluorophenyl)cyclopropane-1,1-dicarboxamide], the half-inhibitory concentration (IC50) in assay [1] is 14 nM; against HGFR it was 19 nM.

Regarding `CCN(CC)CCCNC(=O)Nc1cc(Oc2ccc(NC(=O)C3(C(=O)Nc4ccc(F)cc4)CC3)c(Cl)c2)ccn1` [Example 43, N-[2-Chloro-4-({2-[({[3-(diethylamino)propyl]amino}carbonyl)amino]pyridin-4-yl}oxy)phenyl]-N′-(4-fluorophenyl)cyclopropane-1,1-dicarboxamide], the results for the IC50 (in assay [1]; against HGFR) were 280 nM and 330 nM, respectively.

Turning to `CN(C)CCN1CCC(N(C)C(=O)Nc2cc(Oc3ccc(NC(=O)C4(C(=O)Nc5ccc(F)cc5)CC4)c(F)c3)ccn2)CC1` [Example 25, N-(4-{[2-({[{1-[2-(Dimethylamino)ethyl]piperidin-4-yl}(methyl)amino]carbonyl}amino)pyridin-4-yl]oxy}-2-fluorophenyl)-N′-(4-fluorophenyl)cyclopropane-1,1-dicarboxamide], the IC50 in assay [1] stood at 19 nM; on HGFR, 4.6 nM.

For the molecule `O=C(Nc1cc(Oc2ccc(NC(=O)C3(C(=O)Nc4ccc(F)cc4)CC3)cc2)ccn1)N1CCC(CN2CCC2)CC1` [Example 27, N-(4-{[2-({f [4-(Azetidin-1-ylmethyl)piperidin-1-yl]carbonyl}amino)pyridin-4-yl]oxy}phenyl)-N′-(4-fluorophenyl)cyclopropane-1,1-dicarboxamide], the IC50 in assay [1] was 48 nM; on HGFR, 32 nM.

One may read the IC50 as the concentration that inhibits the measured activity by half.
